Results from patent US6951953B2, “Tumor selective and biodegradable polyphosphazene-platinum(II) conjugate antitumor agent, and preparation method thereof” (EWHA Womans University, priority 2003, dated 2005).
pIC50: −log10 of the molar value. Like-named read-outs stand apart in the source and are kept apart here.

Assays:
[1] = tested on: leukemia L1210 cell line; details: read-out: In vitro (ID50)
[2] = tested on: leukemia L1210 cell line
[3] = tested on: gastric tumor cell line (YCC-3); assay: In vivo xenograft test against a gastric tumor cell line (YCC-3); details: YCC-3 xenograft in nu/nu mice; for The tumor tissue size after injection of an antitumor agent: intraperitoneal; for tumor tissue growth rate / inhibition effect on it (in words): versus control group / cisplatin, after 60 days from injection
Description: The in vivo sensitivity of the present conjugate drug against a gastric tumor cell line (YCC-3) was assayed using nu/nu mice (6-8 weeks old, 20-25 g). After being treated with 0.25% Trypsin-EDTA, the cultivated tumor cells were centrifuged in PBS solution for 5 minutes. This process was repeated three or more times, and then the tumor cells were made into a single floated tumor cell. The concentration of the tumor cells in PBS solution was calculated from the number of cells measured by a hemocytometer. The tumor cells were then kept in ice and were injected into mice within 30 minutes. The single floated tumor cells (4×10^7) in 100 μl of PBS solution were subcutaneously injected into the right side of each mouse using an 1 ml syringe.
[…] In the case of the control group, only the same amount of PBS solution was injected. Weights of the mice and tumor size were measured every two days. Size of the tumor was calculated with an equation of length×width×width/2.

Question: “poly{[methoxy poly(ethylene glycol)350][glycylglutamato-trans-(±)-1,2-diaminocyclohexaneplatinum(II)]phosphazene}, {NP(MPEG350)1.5[(GlyGlu)Pt(dach)]0.5}n [Example 1]” was tested. Which pIC50 [1] did it give?
Answer: Its pIC50 is 5.09.

Question: And the “in vivo T/C (%)” value ([2]; dosage 30 mg/kg)?
Answer: Its value is 178/30%.

Question: With “pol{[methoxy poly(ethylene glycol)350][glycylglutamato-trans-(±)-1,2-diaminocyclohexaneplatinum(II)]phosphazene}, {NP(MPEG350)1.2[(GlyGlu)Pt(dach)]0.8}n [Example 4]” as the compound, how does the pIC50 [1] read?
Answer: Its pIC50 is 5.46.

Question: And the “in vivo T/C (%)” value ([2]; dosage 30 mg/kg)?
Answer: The value was 186.8%.

Question: What about the “in vivo T/C (%)” value ([2]; dosage 60 mg/kg) of the same compound?
Answer: Its value is 216.8%.

Question: Which results are given for `N.N.[Cl][Pt][Cl]` [Cisplatin, reference compound]?
Answer: The tumor tissue size after injection of an antitumor agent ([3]; 18 days, dosage 4 mg/kg): 161.36 mm^3; The tumor tissue size after injection of an antitumor agent ([3]; 32 days, dosage 4 mg/kg): 330.62 mm^3; The tumor tissue size after injection of an antitumor agent ([3]; 48 days, dosage 4 mg/kg): 588.02 mm^3; The tumor tissue size after injection of an antitumor agent ([3]; 60 days, dosage 4 mg/kg): 815.79 mm^3; tumor tissue growth rate / inhibition effect on it (in words) [3]: not significantly different from that of the control group

Question: What does the source list for “poly{[methoxy poly(ethylene glycol)350][glycylglutamato-trans-(±)-1,2-diaminocyclohexaneplatinum(II)]phosphazene}, {NP(MPEG350)1.0[(GlyGlu)Pt(dach)]1.0}n [Example 3]”?
Answer: pIC50 [1]: 5.47; The tumor tissue size after injection of an antitumor agent ([3]; 18 days, dosage 30 mg/kg): 121.92 mm^3; The tumor tissue size after injection of an antitumor agent ([3]; 18 days, dosage 60 mg/kg): 32.69 mm^3; The tumor tissue size after injection of an antitumor agent ([3]; 32 days, dosage 30 mg/kg): 210.38 mm^3; The tumor tissue size after injection of an antitumor agent ([3]; 32 days, dosage 60 mg/kg): 72.08 mm^3; The tumor tissue size after injection of an antitumor agent ([3]; 48 days, dosage 30 mg/kg): 111.23 mm^3; The tumor tissue size after injection of an antitumor agent ([3]; 48 days, dosage 60 mg/kg): 65.36 mm^3; The tumor tissue size after injection of an antitumor agent ([3]; 60 days, dosage 30 mg/kg): 22.71 mm^3; The tumor tissue size after injection of an antitumor agent ([3]; 60 days, dosage 60 mg/kg): 91.10 mm^3; tumor tissue growth rate / inhibition effect on it (in words) [3]: outstanding compared with that of cisplatin; in vivo T/C (%) ([2]; dosage 30 mg/kg): 194.1%; in vivo T/C (%) ([2]; dosage 60 mg/kg): toxic

Question: With “poly{[methoxy poly(ethylene glycol)350][glycylglutamato-trans-(±)-1,2-diaminocyclohexaneplatinum(II)]phosphazene}, {NP(MPEG350)1.4[(GlyGlu)Pt(dach)]0.6}n [Example 5]” as the compound, how does the pIC50 [1] read?
Answer: Its pIC50 is 5.21.

Question: What about the “in vivo T/C (%)” value ([2]; dosage 30 mg/kg) of the same compound?
Answer: Its value is 244.3%.

Question: And the “in vivo T/C (%)” value ([2]; dosage 60 mg/kg)?
Answer: The value was 231.1%.

Question: How did the pIC50 [1] turn out when “poly{[methoxy poly(ethylene glycol)350][glycylglutamato-trans-(±)-1,2-diaminocyclohexaneplatinum(II)]phosphazene}, {NP(MPEG350)1.2[(GlyGlu)Pt(dach)]0.8}n [Example 2]” was run?
Answer: The pIC50 was 5.16.

Question: And the “in vivo T/C (%)” value ([2]; dosage 30 mg/kg)?
Answer: The value was 208.1%.

Question: And the “in vivo T/C (%)” value ([2]; dosage 60 mg/kg)?
Answer: The value was greater than 305.6%.

Question: How did the pIC50 [1] turn out when “poly{[methoxy poly(ethylene glycol)550][glycylglutamato-trans(±trans-(±)-1,2-diaminocyclohexaneplatinum(II)]phosphazene}, {NP(MPEG350)1.12[(GlyGlu)Pt(dach)]0.88}n [Example 7]” was run?
Answer: Its pIC50 is less than 4.40.

Question: And the “in vivo T/C (%)” value ([2]; dosage 30 mg/kg)?
Answer: Its value is 228.2%.

Question: And the “in vivo T/C (%)” value ([2]; dosage 60 mg/kg)?
Answer: The value was 209.4%.
